Counter-ions that a name gives are not always drawn.

A short description of the experiment: In vitro inhibition of calcium phosphate crystallization in human plasma (spectrophotometric). The settings on record: 0-100 μM, 1.5 mM phosphate, 12.5 mM calcium, pH 7.4, 30 min, rt, read-out: Relative Potency (EC50, inhibition of calcium phosphate crystallization). In kind it is biochemical. As for the experimental part: The in vitro efficacy of the IP4-4,6 substituted derivatives (e.g., Compounds 1 to 53) of the invention on the inhibition of calcium phosphate crystallization in human plasma samples was evaluated according to a spectrophotometric assay previously described in the art (Ferrer M, et al., Sci Rep 2017; 7:6858, doi:10.1038/s41598-017-07203-x).
A 96-well plate was employed. Plasma was spiked (1 volume of the IP4-4,6 substituted derivatives of the invention per 19 volumes of plasma) with increasing concentrations of the derivatives in the range of 0-100 μM. Plasma was then centrifuged at 10,000 g at rt and subsequently mixed with a mixture of 5 mM hydrogen phosphate and 41.67 mM calcium to attain final concentrations of 1.5 mM phosphate and 12.5 mM calcium, respectively. All reagent solutions were filtered, and pH adjusted to 7.4.
Crystallization of calcium phosphate was monitored spectrophotometrically for 30 min at rt by measuring the increments in absorbance at 550 nm using the Biotek Powerwave XS Microplate spectrophotometer (BioTek Instruments, Inc., Winooski, VT, US). The plate was incubated at rt in an orbital shaker and absorbance measured every 3 min.
Plasma crystallization was assessed based on slope measurement in the linear range between 6 and 24 min from plots of increase in absorbance versus logarithm of time. The efficacy of different myo-inositol phosphates derivatives in preventing in vitro formation of calcium phosphate crystals was assessed in human plasma samples using the slopes obtained between 6- and 24-min. Inhibition of crystallization was measured by comparing the slopes of the control sample (blank plasma) with those of samples containing the inhibitor as shown below: […]
As for “4,6-O-(6-(4-carboxy-1H-1,2,3-triazol-1-yl) hexyl)-myo-inositol-1,2,3,5-tetrakis(phosphate) decasodium salt [Compound 40]”, the half-maximal effective concentration (EC50) is at most 5 µM.
On to “4,6-O-bis(2-(4-acetylpiperazin-1-yl)ethyl)-myo-inositol-1,2,3,5-tetrakis(phosphate) octasodium salt [Compound 34]”, for which the EC50 is 5 to 10 µM.
“4,6-O-bis(3-(3-phenylureido)propyl)-myo-inositol-1,2,3,5-tetrakis(phosphate) octasodium salt [Compound 46]”: the 50% effective concentration (EC50) lay within 5 to 10 µM.
Turning to “4,6-O-bis(3-(4-(2-carboxyethyl)-1H-1,2,3-triazol-1-yl)propyl)-myo-inositol-1,2,3,5-tetrakis(phosphate) decasodium salt [Compound 35]”, the concentration giving a half-maximal response (EC50) is at most 5 µM.
Consider “4,6-O-bis(3-(4-(methoxymethyl)-1H-1,2,3-triazol-1-yl)propyl)-myo-inositol-1,2,3,5-tetrakis(phosphate) octasodium salt [Compound 36]”, for which the EC50 was in the range of 5 to 10 µM.
Regarding “4,6-O-bis(3-((methoxycarbonyl)amino)propyl)-myo-inositol-1,2,3,5-tetrakis(phosphate) octasodium salt [Compound 24]”, the EC50 is over 10 µM.
As for “4,6-O-bis(3-methoxypropyl)-myo-inositol-1,2,3,5-tetrakis(phosphate) octasodium salt [Compound 10]”, the figure is at most 5 µM; as for “4,6-O-bis(4-amino-4-oxobutyl)-myo-inositol-1,2,3,5-tetrakis(phosphate) octasodium salt [Compound 26]”, at most 5 µM.
As for “4,6-O-bis(4-methylpentyl)-myo-inositol-1,2,3,5-tetrakis(phosphate) octasodium salt [Compound 21]”, the concentration giving a half-maximal response (EC50) is over 10 µM.
As to “4,6-O-bis(5-(4-(methoxymethyl)-1H-1,2,3-triazol-1-yl) pentyl)-myo-inositol-1,2,3,5-tetrakis(phosphate) octasodium salt [Compound 38]”, the EC50 was at most 5 µM.
In the case of “4,6-O-bis(5-carboxypentyl)-myo-inositol-1,2,3,5-tetrakis(phosphate) decasodium salt [Compound 18]” it was at most 5 µM; in that of “4,6-O-bis(5-methoxypentyl)-myo-inositol-1,2,3,5-tetrakis(phosphate) octasodium salt [Compound 9]”, at most 5 µM.
For the compound “4,6-O-bis(6,6,6-trifluorohexyl)-myo-inositol-1,2,3,5-tetrakis(phosphate) octasodium salt [Compound 23]”, the EC50 was over 10 µM.
In the case of “4,6-O-bis(6-(4-(methoxymethyl)-1H-1,2,3-triazol-1-yl) hexyl)-myo-inositol-1,2,3,5-tetrakis(phosphate) octasodium salt [Compound 39]”, the concentration for a half-maximal effect (EC50) is at most 5 µM.
Turning to “4,6-O-bis(10-carboxydecyl)-myo-inositol-1,2,3,5-tetrakis(phosphate) decasodium salt [Compound 19]”, the EC50 was over 10 µM.
In the case of “4,6-O-bis(19-methoxynonadec-10-yn-1-yl)-myo-inositol-1,2,3,5-tetrakis(phosphate) octasodium salt [Compound 20]” it was at most 5 µM; in that of “4,6-O-bis((1-(3-methoxypropyl)-1H-1,2,3-triazol-4-yl)methyl)-myo-inositol-1,2,3,5-tetrakis(phosphate) octasodium salt [Compound 32]”, at most 5 µM; in that of “4,6-O-bis((3-(4-carboxybutanamido)propyl))-myo-inositol-1,2,3,5-tetrakis(phosphate) decasodium salt [Compound 45]”, at most 5 µM.
Turning to “4,6-O-diheptyl-myo-inositol-1,2,3,5-tetrakis(phosphate) octasodium salt [Compound 5]”, the EC50 was at most 5 µM.
For the compound “4,6-O-dipropyl-myo-inositol-1,2,3,5-tetrakis(phosphate) octasodium salt [Compound 4]”, the EC50 is at most 5 µM.
As for `CCCCCCCCCCOC1C(OP(=O)(O)O)C(OCCCCCCCCCC)C(OP(=O)(O)O)C(OP(=O)(O)O)C1OP(=O)(O)O` (stereo not drawn) [Compound 2, 4,6-O-didecyl-myo-inositol-1,2,3,5-tetrakis(phosphate) octasodium salt], the figure is over 10 µM; as for `O=P(O)(O)OC1C(OCCCCCCCCCCO)C(OP(=O)(O)O)C(OP(=O)(O)O)C(OP(=O)(O)O)C1OCCCCCCCCCCO` (stereo not drawn) [Compound 7, 4,6-O-bis(10-hydroxydecyl)-myo-inositol-1,2,3,5-tetrakis(phosphate) octasodium salt], over 10 µM; as for `COCCCCCCCOC1C(OP(=O)(O)O)C(OCCCCCCCOC)C(OP(=O)(O)O)C(OP(=O)(O)O)C1OP(=O)(O)O` (stereo not drawn) [Compound 11, 4,6-O-bis(7-methoxyheptyl)-myo-inositol-1,2,3,5-tetrakis(phosphate) octasodium salt], over 10 µM.
Turning to `COCCCCCCCCCOC1C(OP(=O)(O)O)C(OCCCCCCCCCOC)C(OP(=O)(O)O)C(OP(=O)(O)O)C1OP(=O)(O)O` (stereo not drawn) [Compound 12, 4,6-O-bis(9-methoxynonyl)-myo-inositol-1,2,3,5-tetrakis(phosphate) octasodium salt], the EC50 is over 10 µM.
As for `NCCCOC1C(OP(=O)(O)O)C(OCCCN)C(OP(=O)(O)O)C(OP(=O)(O)O)C1OP(=O)(O)O` (stereo not drawn) [Compound 13, 4,6-O-bis(3-aminopropyl)-myo-inositol-1,2,3,5-tetrakis(phosphate) octasodium salt], the figure is 5 to 10 µM; as for `NCCCCCO[C@@H]1[C@@H](OP(=O)(O)O)[C@H](OCCCCCN)[C@@H](OP(=O)(O)O)[C@@H](OP(=O)(O)O)[C@H]1OP(=O)(O)O` [Compound 14, 4,6-O-bis(5-aminopentyl)-myo-inositol-1,2,3,5-tetrakis(phosphate) octasodium salt], at most 5 µM; as for `NCCCCCCCCCCO[C@@H]1[C@@H](OP(=O)(O)O)[C@H](OCCCCCCCCCCN)[C@@H](OP(=O)(O)O)[C@@H](OP(=O)(O)O)[C@H]1OP(=O)(O)O` [Compound 15, 4,6-O-bis(10-aminodecyl)-myo-inositol-1,2,3,5-tetrakis(phosphate) octasodium salt], over 10 µM.
In the case of `O=P(O)(O)OC1C(OCCCCCn2cccn2)C(OP(=O)(O)O)C(OP(=O)(O)O)C(OP(=O)(O)O)C1OCCCCCn1cccn1` (stereo not drawn) [Compound 16, 4,6-O-bis(5-(1H-pyrazol-1-yl)pentyl)-myo-inositol-1,2,3,5-tetrakis(phosphate) octasodium salt] it was at most 5 µM; in that of `O=P(O)(O)OC1C(OCCCCCn2cncn2)C(OP(=O)(O)O)C(OP(=O)(O)O)C(OP(=O)(O)O)C1OCCCCCn1cncn1` (stereo not drawn) [Compound 17, 4,6-O-bis(5-(1H-1,2,4-triazol-1-yl)pentyl)-myo-inositol-1,2,3,5-tetrakis(phosphate) octasodium salt], over 10 µM; in that of `O=P(O)(O)O[C@@H]1[C@@H](OCCCC(F)(F)F)[C@H](OP(=O)(O)O)[C@H](OP(=O)(O)O)[C@H](OP(=O)(O)O)[C@H]1OCCCC(F)(F)F` [Compound 22, 4,6-O-bis(4,4,4-trifluorobutyl)-myo-inositol-1,2,3,5-tetrakis(phosphate) octasodium salt], at most 5 µM.

What is called EC50 is the midpoint of the concentration-response curve.

For the origin of these results see patent US20260337212A1, “IP4-4,6 SUBSTITUTED DERIVATIVE COMPOUNDS FOR USE IN THE TREATMENT, INHIBITION OF PROGRESSION, AND PREVENTION OF ECTOPIC CALCIFICATION” (SANIFIT THERAPEUTICS, S.A., priority 2022, published 2026).
